Test results taken from patent publication US20060057071A1, “Paramagnetic complexes with pendant crown compounds showing improved targeting-specificity as MRI contrast agents” (priority 2004, published 2006).
“And” between values parts separate entries of the source, which are not always exact repeats. Identical values can stand only once.

Assays:
MIHA cells [1] = test: In vitro cytotoxicity, MTT / XTT cell proliferation assay; assay type: cell-based
Protocol: To further investigate the potential ability of GdL1 as an NMRI contrast agent, its cytotoxicity was measured by MTT assay. The toxicity of GdL1 was determined from the dose-dependence of surviving cells after exposure to this Gd^3+ complex at different time intervals. For comparison, the cytotoxicities of Gd-DOTA and Gd-DO3A were measured under the same conditions.
To evaluate the toxicity of prepared Gd^3+ complexes, a calorimetric assay (XTT-based) for the non-radioactive quantification of cell proliferation was applied. In the cell proliferating process, the added tetrazolium salt XTT was cleaved to a formazan dye by metabolically active cells, and the quantification of cell growth was achieved by the variation of the absorbance at 492 nm. […] Different concentrations of drugs were adjusted by performing serial dilution. The incubation period of the cell culture ranged from 1, 2, 8, and 24 hrs. XTT dye at a concentration of 5 mg/mL (sigma, St. Louis, Mo.) was added, and the plates were incubated for 12 h in a moist chamber at 37° C. The optical density was determined by eluting the dye with dimethyl sulfoxide, and the absorbance was measured at 570 nm. At least three independent experiments were performed.

liver parenchyma = test: In vivo MRI, hepatic intensity enhancement; design: species or system rat; conditions: for maximal hepatic IE: rat
Protocol: (§1) To study the MRI contrast and biodistribution behavior of gadolinium complexes […] pendant crown ethers, experiments were performed using male Sprague-Dawley (SD) rats that weighted 150-180 g, and were housed at the Wuhan Institute of Physical and Mathematics of the Chinese Academy of Sciences (Wuhan, Hubei Province, China). All procedures conformed to the institutional guidelines for animal welfare. The rat was injected via the femoral vein with 1 mL saline solution of GdL1 in concentrations of 0.1, 0.033, and 0.02 mM/kg, which are the standard dosage, one third and one fifth of the standard dosage used in clinic currently. MR imaging was performed on a 4.7 T Bruker BIO-SPEC-47/30 MRI scanner with a custom spiral surface coil. The animal was scanned in the prone position in the MRI experiment. […] The total duration of the dynamic scanning lasted up to 400 min after the administration, with an image every 4 min. A water tube was placed in the field of view as a phantom reference. The intensity enhancement (IE) of the region of interest (RI) at time point t is expressed by IE=100% (RI(t)-RI(0))/RI(0) where RI(t) corresponds to the normalized signal intensity as measured at time point, t and RI(0) is the normalized signal intensity precontrast.

[2] = 1H NMRD profiles (water proton relaxivity); assay type: physicochemical; conditions: 25° C., pH 6.9, fits of NMRD profile and 17O NMR
Excerpt: (§2) Measuring the relaxation rates of an abundant nuclear species as a function of the magnetic field over a wide range is called relaxometry. A relaxometry profile is a plot of the nuclear magnetic relaxation rate, usually 1/T1, as a function of the Larmor frequency or the magnetic field. This profile is also called a Nuclear Magnetic Resonance Dispersion (NMRD) profile. Compared with the NMRD profile, the prominent advantage of the ^17O NMR technique is that it allows the accurate determination of the water exchange rate 1/TM. This is a consequence of the oxygen nucleus being closer to the paramagnetic centre when bound in the inner-sphere, wherein the outer-sphere contributions to the relaxation rates are negligibly small. With the help of NMRD profiles, ^17O NMR measurements, and the Soloman-Bloemnergen-Morgan theory, several important parameters, such as TM, TR, TV, Δ^2 and rH, can be measured.
Water proton nuclear magnetic resonance dispersion NMRD profile is used to record the longitudinal water proton relaxation rates as a function of magnetic fields. The method is, in principle, sensitive to all of the parameters that influence relaxivity. The ^1H NMRD profiles were measured over a continuum of magnetic field strength from 0.00024 to 0.24 T (corresponding to 0.01-10 MHz proton Larmor frequency, 1 T≈41.7 MHz) on a Spinmaster FFC (Stelar, Mede (PV)), which is a fast field-cycling NMR relaxometer installed at the LIMA Laboratory (Bioindustry Park, Ivrea (TO), Italy). The relaxometer worked under complete control with an absolute uncertainty in 1/T1 of ±2%. The NMRD profiles were measured using 1-2 mM solutions of the complexes.

[3] = 1H NMRD profiles (water proton relaxivity); assay type: physicochemical; conditions: 20 MHz, 25° C., pH 6.9
[4] = Variable-temperature 17O NMR transverse relaxation rate; assay type: physicochemical
Excerpt: as §2
The variable-temperature ^17O NMR measurements were recorded on a JEOL EX-90 (2.1 T) spectrometer that was equipped with a 5 mm probe, by using a D2O external lock. The experimental settings were: spectral width of 10000 Hz, pulse width of 7 μs, acquisition time of 10 ms, 1000 scans, and no sample spinning. Solutions containing 2.6% of ^17O isotope were used. The observed transverse relaxation rates (R2obs^O) were calculated from the signal width at half height.

kidney cortex = test: In vivo MRI, renal intensity enhancement; design: species or system rat
Protocol: as §1

MIHA cells [5] = test: AO/EB staining, laser scanning confocal microscopy; assay type: cell-based; conditions: 10 μM, 1 h, 2 h, 8 h, 24 h incubation, 37° C.
Protocol: MIHA cells in the absence (control) and presence of Gd-DOTA (10 μM), Gd-DO3A (10 μM), and GdL1 (10 μM) incubated at 37° C. and 5% CO2, 95% air in a humidified incubator for 1 h, 2 h, 8 h, and 24 h, respectively.
Based on cell morphology and cell membrane integrity, normal, necrotic, and apoptotic cells can be distinguished using laser confocal microscopy. FIG. 22 gives the cell morphology in the absence and presence of Gd-DOTA (10 μM), Gd-DO3A (10 μM), and GdL1 (10 μM) at various time intervals after the incubation. In the absence or presence of the Gd^3+ complexes, the nuclei of the living cells were stained as bright blue spots in the nucleus.

O=C([O-])CN1CCN(CCN2CCOCCOCCOCCOCC2)CCN(CC(=O)[O-])CCN(CC(=O)[O-])CC1.[Gd+3] [GdL1, Gd^3+ Complex of L1]
viability of the cells (MIHA cells [1]; 1×10^−5 mol L^−1 to 1×10^−2 mol L^−1, 1 h, 2 h, 8 h, 24 h incubation): above 90% | effect on cell viability / cytotoxicity (MIHA cells [1]; up to 1×10^−2 M, up to 24 h incubation): not affected obviously | time after administration of maximal hepatic IE (liver parenchyma; 0.02 mmol/kg): 60 min | hepatic IE maintained after 3 h (liver parenchyma; 0.02 mmol/kg, 3 h): over 40% | hepatic IE a few minutes after the injection (liver parenchyma; 0.03 mmol/kg): about 50% | hepatic IE persisting after 320 min (liver parenchyma; 0.03 mmol/kg, 320 min): 50% | time for which high hepatic IE stays on a plateau (liver parenchyma; 0.033 mmol/kg): more than 4 h | hepatic IE level on plateau (liver parenchyma; 0.033 mmol/kg, more than 4 h after administration): > 60% | resident lifetime in hepatic tissues (liver parenchyma; 0.1 mmol/kg): > 4 h | time after administration at which obvious enhancement of the liver was monitored (liver parenchyma; 0.1 mmol/kg): 30 min | time after administration of maximal hepatic IE (liver parenchyma; 0.1 mmol/kg): 90 to 100 min | time for which strong/high hepatic IE was maintained (liver parenchyma; 0.1 mmol/kg): more than 4 h | maximal hepatic IE (liver parenchyma; 0.1 mmol/kg (standard dosage)): 105% | time after administration of maximal hepatic IE (liver parenchyma; 0.033 (0.03) mmol/kg): 60 to 100 min | maximal hepatic IE (liver parenchyma; 0.033 (0.03) mmol/kg): 90% | time for which strong hepatic intensity enhancement is maintained (liver parenchyma; summary statement): more than four hours | D [2]: 2.24E-5 cm^2s^−1 | TR [2]: 146 ps | TV [2]: 13 ps | a [2]: 4.0 Å | q [2]: 2 | r [2]: 2.98 Å | Δ^2 [2]: 8e+19 s⁻¹ | proton relaxivity r1 (r1p) [3]: 9.65 mM⁻¹ s⁻¹ | temperature at which R2p attains its maximum ([4]; 2.12 T, range 273-340 K): ~270 K | water exchange rate kex^298 ([4]; 25° C.): 1.82e+07 s⁻¹ | TM ([4]; 25° C., pH 6.9, derived from VT 17O NMR spectroscopy): 55 ns | exchange lifetime TM of inner-sphere coordinated water ([4]; 298 K (25° C.), 2.12 T): 55 ns | resident lifetime in renal tissue (kidney cortex; 0.1 mmol/kg): > 3 h | maximal renal intensity enhancement (IE) (kidney cortex; 0.1 mmol/kg (standard dosage), rat, first few minutes after administration): ~200% | renal IE preserved 250 minutes after injection (kidney cortex; 0.1 mmol/kg, 250 min): 40% | kidney contrast enhancement two hours after the injection (kidney cortex; 0.1 mmol/kg, two hours): faint contrast enhancement could still be observed | maximal renal IE (kidney cortex; 0.033 (0.03) mmol/kg, one third of standard dose, rat): 123% and 120% | time for which strong renal intensity enhancement is maintained (kidney cortex; summary statement): more than four hours | cell morphology (apoptotic or necrotic cells) (MIHA cells [5]): no obvious apoptotic or necrotic cells were found
